Assay results published in article PMC3001885, “Metabolic Activity and mRNA Levels of Human Cardiac CYP450s Involved in Drug Metabolism” (PLoS ONE, 2010).

What was measured:
[1] = test system: CYP450s in human heart microsomes; test: Inhibition of verapamil metabolite formation in human heart microsomes by chemical inhibitors; settings: inhibitor 100 µM, verapamil 400 µM
[2] = test system: human heart microsomes; test: Verapamil metabolism in human heart microsomes (formation of metabolites, HPLC); type: in vitro ADME
Description: The HPLC system (Thermo Separation products, Fremont, CA) consisted of a SpectraSystem P4000 pump, a SpectraSystem AS3000 autosampler, a FL3000 fluorescence detector, a SpectraSystem UV3000 ultraviolet detector and PC1000 System Software.
Frozen samples of human heart ventricles (4–10 g) were immersed in cold phosphate buffer 100 mM (pH 7.4) containing potassium chloride 150 mM, EDTA 1 mM, dithiotreitol 0.5 mM and PMSF 0.01 mM (1∶3, w/v). Tissue was roughly sliced prior to homogenization using a Polytron. The resulting suspension was sonicated 3 times for 5–10 seconds. Homogenization and sonication were performed on ice. Microsomal fractions were isolated by centrifugation at 10,000 g for 20 minutes. The resulting supernatant was centrifuged twice at 100,000 g for 2 consecutive 90-minute periods. The final microsomal pellet was resuspended in a phosphate buffer 100 mM (pH 7.4), potassium chloride 150 mM and EDTA 1 mM. All procedures were performed at 4°C. […] The leftover heart microsomes were immediately shock frozen in liquid nitrogen for subsequent protein quantification. Microsomal heart proteins were quantified using a BCA Pierce kit.
All microsomal incubations were performed in duplicate.
Incubations containing microsomes, buffer and NADPH-regenerating system solution were pre-incubated at 37°C for 10 minutes. […] The enzymatic process was stopped by adding 500 µL of ice-cold acetonitrile. Different incubation times were assessed: 15 minutes to 4 hours. Incubation mixtures were centrifuged at 15,000 rpm for 10 minutes.
A series of incubations was also performed with previously inactivated human heart microsomes. The CYP450 proteins were inactivated by heating microsomes at 60°C for 10 minutes. Incubations were also conducted in the presence of nitrogen gas or carbon monoxide gas in replacement of ambient air to inactivate CYP450s.

[3] = left ventricular microsomes, n = 20, substrate verapamil
[4] = microsomes prepared from right ventricles, n = 8, substrate verapamil

Row | decrease in formation of all major verapamil metabolites [1] | Structure (SMILES) | formation rate of verapamil metabolites, median (range; minimum-maximum values) [2, 3] | formation rate of verapamil metabolites, median (range; minimum-maximum values) [2, 4]
1 | more than 80% | CCCCCCCCN [N-octylamine] | – | –
2 | more than 80% | CCCC(C(=O)OCCN(CC)CC)(c1ccccc1)c1ccccc1 [SKF525] | – | –
3 | – | COc1cc(C(C#N)(CCCNCCc2ccc(OC)c(OC)c2)C(C)C)ccc1O (stereo not drawn) [PR22] | 27 (2.1–76) pmol/min/mg of heart microsomal proteins | 21 (3.7–64.4) pmol/min/mg of heart microsomal proteins
4 | – | COc1ccc(CCNCCCC(C#N)(c2ccc(OC)c(OC)c2)C(C)C)cc1OC (stereo not drawn) [norverapamil] | 25 (5.8–214) pmol/min/mg of heart microsomal proteins | 39 (5.8–145) pmol/min/mg of heart microsomal proteins
